Measurements taken from US9657009B2, “Heteroaryl substituted pyridyl compounds useful as kinase modulators” (BRISTOL-MYERS SQUIBB COMPANY, priority 2012, dated 2017).

Biological target: IRAK4 (Homo sapiens (Human), UniProt Q9NWZ3)
Experiment: IRAK4 Inhibition Assay
Format: biochemical
Settings: ATP 500 μM; IRAK4 0.6 nM; 60 min at room temperature; read-out: IRAK4 IC50
Protocol: IRAK4 Inhibition Assay The assays were performed in U-bottom 384-well plates. […] The reaction was initiated by the combination of IRAK4 with substrates and test compounds. The reaction mixture was incubated at room temperature for 60 min. and terminated by adding 45 μL of 35 mM EDTA to each sample.

Chain of IRAK4 (Q9NWZ3 whole entry, species assumed): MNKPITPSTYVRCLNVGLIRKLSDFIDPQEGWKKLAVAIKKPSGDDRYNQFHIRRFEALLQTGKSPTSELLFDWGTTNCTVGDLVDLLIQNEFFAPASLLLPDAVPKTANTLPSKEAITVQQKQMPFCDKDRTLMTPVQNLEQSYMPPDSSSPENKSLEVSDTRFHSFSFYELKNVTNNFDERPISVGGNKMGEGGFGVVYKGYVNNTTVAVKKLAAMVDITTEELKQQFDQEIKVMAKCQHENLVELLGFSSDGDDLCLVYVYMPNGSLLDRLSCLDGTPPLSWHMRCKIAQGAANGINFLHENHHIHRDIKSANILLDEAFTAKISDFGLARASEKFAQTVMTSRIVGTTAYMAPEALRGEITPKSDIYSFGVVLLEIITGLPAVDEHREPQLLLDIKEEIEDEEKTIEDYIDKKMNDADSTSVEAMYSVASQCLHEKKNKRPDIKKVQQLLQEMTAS

SMILES	IC50
CCNc1cc(Nc2ncc(C#N)cn2)ncc1C(=O)NC[C@@H](F)C(C)(C)O [Example 58]	10.4 nM
CNC(=O)[C@H]1CC[C@H](NC(=O)c2cnc(Nc3ncc(C#N)cc3F)cc2NC2CC2)CC1 [Example 59]	7.4 nM
CNC(=O)[C@H]1CC[C@H](NC(=O)c2cnc(Nc3ncc(C#N)cc3Cl)cc2NC2CC2)CC1 [Example 60]	6.7 nM
CNC(=O)[C@H]1CC[C@H](NC(=O)c2cnc(Nc3ncc(C#N)cc3F)cc2NC2CCOCC2)CC1 [Example 61]	8.4 nM
Cc1nc(Nc2cc(NC(C)C)c(C(=O)NC[C@@H](F)C(C)(C)O)cn2)ccc1C#N [Example 63]	3.8 nM
CC(=O)N[C@H](C)CCNC(=O)c1cnc(Nc2ncc(C#N)cc2F)cc1NC(C)C [Example 64]	3.1 nM
CC(C)(O)[C@H](F)CNC(=O)c1cnc(Nc2ncc(C#N)cc2Cl)cc1NCC(F)(F)F [Example 65]	2.9 nM
CCNc1cc(Nc2ncc(C#N)cc2F)ncc1C(=O)NC[C@@H](F)C(C)(C)O [Example 66]	3.8 nM
CC(=O)N[C@H]1CC[C@H](NC(=O)c2cnc(Nc3ncc(C#N)cc3Cl)cc2NC2CC2)CC1 [Example 67]	7.2 nM
CCn1ncc(Nc2cc(NC(C)C)c(C(=O)NC[C@@H](F)C(C)(C)O)cn2)n1 [Example 72]	10.4 nM
CC(C)(O)c1cnc(Nc2cc(Nc3ncc(C#N)cc3Cl)ncc2C(=O)NC[C@@H](F)C(C)(C)O)s1 [Example 75]	1.4 nM
CC(C)(O)[C@H](F)CNC(=O)c1cnc(Nc2ncc(C#N)cc2Cl)cc1NC1CCCC1O (stereo partly shown) [Example 76]	6.4 nM
CC(=O)N[C@H]1CC[C@H](NC(=O)c2cnc(Nc3ncc(C#N)cc3Cl)cc2NC2CCOCC2)CC1 [Example 77]	7.8 nM
CC(C)(O)[C@H](F)CNC(=O)c1cnc(Nc2ncc(C#N)cc2Cl)cc1NC1CCOCC1F (stereo partly shown) [Example 79]	3 nM
CC(C)Nc1cc(Nc2ncc(F)cc2F)ncc1C(=O)NC[C@@H](F)C(C)(C)O [Example 80]	7 nM
CC(C)(O)[C@H](F)CNC(=O)c1cnc(Nc2ccc(Cl)cn2)cc1NC1CC1 [Example 81]	7.1 nM
CC(=O)N[C@H]1CC[C@H](NC(=O)c2cnc(Nc3ncc(C#N)cc3F)cc2NC2CC2)CC1 [Example 83]	7.3 nM
Cc1cc(C#N)cnc1Nc1cc(NC(C)C)c(C(=O)NC[C@@H](F)C(C)(C)O)cn1 [Example 85]	3.6 nM
CC(C)(O)[C@H](F)CNC(=O)c1cnc(Nc2ncc(C#N)cn2)cc1NC1CCC(F)C1 (stereo partly shown) [Example 86]	4.8 nM
CC(C)(O)[C@H](F)CNC(=O)c1cnc(Nc2ncc(F)cc2F)cc1NC1CC1 [Example 89]	14.5 nM
CC(C)(O)[C@H](F)CNC(=O)c1cnc(Nc2ncc(C#N)cc2Cl)cc1NC12CC(C1)C2 [Example 90]	3.5 nM
C[C@@H](CO)Nc1cc(Nc2ncc(C#N)cc2F)ncc1C(=O)NC[C@@H](F)C(C)(C)O [Example 91]	4.3 nM
CC(C)Nc1cc(Nc2ncc(C#N)cc2Cl)ncc1C(=O)N[C@H]1CC[C@H](O)CC1 [Example 92]	12.7 nM
COC(=O)Cn1cc(Cl)c(Nc2cc(NC(C)C)c(C(=O)NC[C@@H](F)C(C)(C)O)cn2)n1 [Example 93]	17.5 nM
CC(C)(O)[C@H](F)CNC(=O)c1cnc(Nc2ncncc2F)cc1NC1CC1 [Example 94]	12.1 nM
CC(C)(O)[C@H](F)CNC(=O)c1cnc(Nc2ncncc2Cl)cc1NC1CCCOC1 (stereo partly shown) [Example 96]	11.2 nM
CC(C)(O)[C@H](F)CNC(=O)c1cnc(Nc2ncc(C#N)cc2F)cc1NC1CCCOC1 (stereo partly shown) [Example 97]	5.3 nM
CC(C)(O)[C@H](F)CNC(=O)c1cnc(Nc2ncc(C#N)cc2F)cc1NC1CCCOC1 (stereo partly shown) [Example 98]	7.5 nM
CCC(C)Nc1cc(Nc2ncc(C#N)cn2)ncc1C(=O)NC[C@@H](F)C(C)(C)O (stereo partly shown) [Example 99]	4.2 nM

Now from value to compound:

IC50	SMILES
17.4 nM	C[C@H](CO)Nc1cc(Nc2ncc(F)cc2F)ncc1C(=O)NC[C@@H](F)C(C)(C)O [Example 100]
5.6 nM	C[C@@H](CO)Nc1cc(Nc2ncc(C#N)cn2)ncc1C(=O)NC[C@@H](F)C(C)(C)O [Example 101]
5.3 nM	CC(C)(F)CNc1cc(Nc2ncc(C#N)cc2Cl)ncc1C(=O)NC1CCC(C(C)(C)O)CC1 (stereo not shown) [Example 103]
8.6 nM	CC(C)(O)[C@H](F)CNC(=O)c1cnc(Nc2ncc(C#N)cc2Cl)cc1NC1CCCCC1O (stereo partly shown) [Example 104]
9.1 nM	CC(C)(O)[C@H](F)CNC(=O)c1cnc(Nc2ncc(C#N)cn2)cc1N[C@H]1CCC[C@H]1F [Example 107]
8.7 nM	CC(C)(O)[C@H](F)CNC(=O)c1cnc(Nc2ncc(F)cc2F)cc1NC1CCOCC1F (stereo partly shown) [Example 108]
11.8 nM	CC(C)Nc1cc(Nc2ncc(O)cn2)ncc1C(=O)NC[C@@H](F)C(C)(C)O [Example 111]
11 nM	COc1cnc(Nc2cc(NC3CCC3)c(C(=O)NC[C@@H](F)C(C)(C)O)cn2)nc1 [Example 112]
17 nM	Cc1cnc(Nc2cc(NC(C)C)c(C(=O)NC[C@@H](F)C(C)(C)O)cn2)nc1 [Example 113]
2.3 nM	CC(C)(O)[C@H](F)CNC(=O)c1cnc(Nc2ncc(C#N)cc2F)cc1NC1CCC(F)C1 (stereo partly shown) [Example 114]
2.8 nM	CC(C)Nc1cc(Nc2ncc(C#N)cc2F)ncc1C(=O)N[C@H]1CC[C@H](C(=O)NC(C)C)CC1 [Example 116]
3.8 nM	CCC(O)(CC)[C@H](F)CNC(=O)c1cnc(Nc2ncc(C#N)cn2)cc1NC(C)C [Example 117]
4.6 nM	CC(C)Nc1cc(Nc2ncc(C#N)cc2F)ncc1C(=O)N[C@H]1CC[C@H](C(=O)NC2CC2)CC1 [Example 118]
10.5 nM	CC(C)(O)[C@H](F)CNC(=O)c1cnc(Nc2ncc(C#N)cc2F)cc1NC12CC3CC(CC(C3)C1)C2 [Example 119]
6.6 nM	CC(C)Nc1cc(Nc2ncc(C#N)cc2F)ncc1C(=O)NCCc1ccc(S(N)(=O)=O)cc1 [Example 121]
3.3 nM	CC(C)(O)[C@H](F)CNC(=O)c1cnc(Nc2ncc(C#N)cc2F)cc1Nc1cccc(CO)c1 [Example 122]
3.5 nM	CC(C)Nc1cc(Nc2ncc(Cl)cc2F)ncc1C(=O)NC[C@@H](F)C(C)(C)O [Example 123]
5.7 nM	CC(C)(O)[C@H](F)CNC(=O)c1cnc(Nc2ncc(Cl)cc2F)cc1NC1CC1 [Example 124]
3.6 nM	CC(C)(O)[C@H](F)CNC(=O)c1cnc(Nc2ncc(C#N)cc2F)cc1Nc1cccc(O)c1 [Example 125]
2.9 nM	CC(C)(O)[C@H](F)CNC(=O)c1cnc(Nc2ncc(C#N)cc2F)cc1NCC(F)(F)C(C)(C)O [Example 126]
15.3 nM	CC(C)Nc1cc(Nc2ncc(C#N)cc2F)ncc1C(=O)NCCCOC(C)(C)C [Example 127]
4.6 nM	CC(C)(O)[C@H](F)CNC(=O)c1cnc(Nc2ncc(C#N)cc2F)cc1Nc1cccc(S(N)(=O)=O)c1 [Example 128]

IC50	SMILES
15.9 nM	Cc1cnc(Nc2cc(NC(C)C)c(C(=O)NC[C@@H](F)C(C)(C)O)cn2)c(F)c1 [Example 129]
4 nM	COc1cccc(Nc2cc(Nc3ncc(C#N)cc3F)ncc2C(=O)NC[C@@H](F)C(C)(C)O)c1 [Example 130]
10.6 nM	CC(C)Nc1cc(Nc2ccnc(N)n2)ncc1C(=O)NC[C@@H](F)C(C)(C)O [Example 131]
13 nM	CC(C)Nc1cc(Nc2ncncc2N)ncc1C(=O)NC[C@@H](F)C(C)(C)O [Example 132]
3.2 nM	CC(C)(O)[C@H](F)CNC(=O)c1cnc(Nc2ncc(C#N)cc2F)cc1NC12CCC(O)(CC1)C2 [Example 133]
5.2 nM	CC(C)(O)[C@H](F)CNC(=O)c1cnc(Nc2ncc(C#N)cc2F)cc1Nc1cccc(NS(C)(=O)=O)c1 [Example 134]
6 nM	CC(C)(O)[C@H](F)CNC(=O)c1cnc(Nc2ncc(C#N)cc2F)cc1Nc1cccc(C(N)=O)c1 [Example 135]
3.3 nM	CC(C)Nc1cc(Nc2ncc(C#N)c(N)n2)ncc1C(=O)NC[C@@H](F)C(C)(C)O [Example 136]
4.1 nM	CC(C)Nc1cc(Nc2ncc(C#N)cc2F)ncc1C(=O)N[C@H]1CC[C@H](C(C)(C)O)CC1 [Example 137]
3.5 nM	CCCNc1cc(Nc2ncc(C#N)cc2Cl)ncc1C(=O)NC[C@@H](F)C(C)(C)O [Example 138]
6 nM	CCCNc1cc(Nc2ncc(C#N)cc2F)ncc1C(=O)NC[C@@H](F)C(C)(C)O [Example 139]
7.3 nM	CC(C)CCNc1cc(Nc2ncc(C#N)cc2Cl)ncc1C(=O)NC[C@@H](F)C(C)(C)O [Example 140]
9.9 nM	CC(C)CCNc1cc(Nc2ncc(C#N)cc2F)ncc1C(=O)NC[C@@H](F)C(C)(C)O [Example 141]
1.2 nM	CC(C)(O)[C@H](F)CNC(=O)c1cnc(Nc2ncc(C#N)cc2F)cc1Nc1ccc(C(N)=O)cc1 [Example 142]
2.9 nM	CC(C)(O)[C@H](F)CNC(=O)c1cnc(Nc2ncc(C#N)cc2Cl)cc1Nc1cccc(C(N)=O)c1 [Example 143]
8.5 nM	Cn1nnnc1-c1cccc(Nc2cc(Nc3ncc(C#N)cc3Cl)ncc2C(=O)NC[C@@H](F)C(C)(C)O)c1 [Example 146]
12.4 nM	Cn1nnnc1-c1ccc(Nc2cc(Nc3ncc(C#N)cn3)ncc2C(=O)NC[C@@H](F)C(C)(C)O)cc1 [Example 147]
3.4 nM	Cn1nnnc1-c1ccc(Nc2cc(Nc3ncc(C#N)cc3Cl)ncc2C(=O)NC[C@@H](F)C(C)(C)O)cc1 [Example 148]
3 nM	CS(=O)(=O)[C@H]1CC[C@H](NC(=O)c2cnc(Nc3ncc(C#N)cc3Cl)cc2NC2CCOCC2)CC1 [Example 149]
1.4 nM	CC(C)(O)[C@H](F)CNC(=O)c1cnc(Nc2ncc(C#N)cc2Cl)cc1N[C@H]1CC[C@](C)(O)CC1 [Example 150]
3.3 nM	CS(=O)(=O)[C@H]1CC[C@H](NC(=O)c2cnc(Nc3ncc(C#N)cc3Cl)cc2NC2CC2)CC1 [Example 151]

Same assay, conditions: read-out: IRAK4 IC50; ATP 500 μM; IRAK4 0.6 nM; 60 min at room temperature

SMILES	IC50
CC(C)Nc1cc(Nc2ncc(C#N)cc2F)ncc1C(=O)NC1CCC(C(C)(O)C2CC2)CC1 (stereo not shown) [Example 144]	7.8 nM
